From patent US9611246B2, “Compositions, apparatus, systems, and methods for resolving electronic excited states” (HALLSTAR INNOVATIONS CORP., priority 2012, dated 2017)

Columns and labels:
Assay type in all cases: physicochemical
[1] = Stern-Volmer analysis of singlet oxygen suppression
From the text: The singlet oxygen phosphorescence intensity in the absence of the compound of Formulas I(a)(1), II(a)(1), II(d)(1), II(e)(1), or a mixture of II(b)(1) and II(c)(1) (I0) divided by the singlet oxygen phosphorescence intensity in the presence of compounds of Formula I/II(I) was plotted against the Formula I/II concentration (FIG. 16). From the slope of these plots (Stern-Volmer constant) and the lifetime of the quenched excited state, the bimolecular quenching constant can be extracted. If the excited state, which is quenched by the compound of Formula I(a)(1) (which causes a reduction in singlet oxygen production) is the singlet excited state of protoporphyrin IX then, using the previously measured fluorescence lifetime in acetonitrile (if =12.7 ns) a quenching rate constant of 2.4×10^9 M^−1 s^−1 is estimated. […] The rate constant derived from singlet oxygen phosphorescence quenching (FIG. 16) is only half of the more directly derived rate constant from fluorescence quenching, which could be caused by the difference in solvents or by some contribution of protoporphyrin triplet quenching by the compound of Formula I(a)(1). […] This rate constant is 5 times higher than the directly measured rate constant by laser flash photolysis (6.1×10^6 M^−1 s^−1). […] It must be noted that protoporphyrin IX triplet lifetime of ˜1 μs in air saturated DMSO was only estimated based on the directly measured triplet lifetime in air saturated acetonitrile and considering the different oxygen concentration in DMSO compared to acetonitrile. If necessary, the protoporphyrin IX triplet lifetime in air saturated DMSO can easily be measured by laser flash photolysis. The complex reaction mechanism is summarized in Scheme 1 (FIG. 17).
The biomolecular quenching rate constants for singlet excited state (kq^S) and triplet excited state (kq^T) quenching of PPIX by stabilizers in acetonitrile solutions at room temperature is shown in Table 4, as well and the Stern-Volmer rate constants.
Stern-Volmer constants are in direct correlation with the singlet oxygen suppression efficiency. Table 4 (above) summarizes the Stern-Volmer constants and PPIX singlet and triplet state quenching rate constants. Three different ranges of Stern-Volmer constants were observed. […] For compounds I(a)(1), II(d)(1), and the mixture of II(b)(1) and II(c)(1), Stern-Volmer constants of about 30 M^−1 were observed. For these three stabilizers, high PPIX singlet quenching rate constants (about 5×10^9 M^−1 s^−1) but low triplet quenching rate constants (<10^9 M^−1 s^−1) were observed. Here, the singlet oxygen suppression is probably dominated by PPIX singlet excited state quenching by these stabilizers. […] Because of the very high PPIX triplet quenching rate constant by compound II(a)(1) (3.2×10^9 M^−1 s^−1), the singlet oxygen suppression is probably dominated by triplet quenching. […] These kinetic parameters may include the MePPIX triplet and singlet lifetimes in air saturated and oxygen free CDCl3 and the bimolecular quenching constant by oxygen.

[2] = Protoporphyrin IX fluorescence lifetime quenching (singlet excited state); conditions: for bimolecular quenching rate constant for singlet excited state quenching (in words) / Singlet Quenching Rate Constant: PPIX; for Singlet Quenching Rate Constant: acetonitrile solutions at room temperature
Experimental: Fluorescence lifetime measurements are a convenient way to measure singlet state quenching by stabilizers. Protoporphyrin IX decay traces were recorded in the absence and presence of compound I(a)(1) and alkoxy […] (FIG. 3). […] The collected data shown in FIG. 3 were used to determine the bimolecular quenching rate constant for singlet excited state quenching by the compounds. The quenching rate constant may be directly extracted from the slope of the plot of the inverse fluorescence lifetime vs. the concentration of the two compounds (FIG. 4). […] The biomolecular quenching rate constants for singlet excited state (kq^S) and triplet excited state (kq^T) quenching of PPIX by stabilizers in acetonitrile solutions at room temperature is shown in Table 4, as well and the Stern-Volmer rate constants.

[3] = Luminescence experiments in ethanol (room temperature and 77 K matrix)
Experimental: Because Formula II(a)(1) contains a ketone functionality, intersystem crossing into the triplet state could be promoted after photoexcitation due to spin-orbit coupling. Stabilizer triplet states could generate singlet oxygen. Low-temperature luminescence experiments in a ethanol matrix at 77 K were performed in search for phosphorescence of potential triplet states.
The quenching mechanism of protoporphyrin IX singlet excited states and triplet states by the compound of Formulas I, II, and III may be further clarified. A simple energy transfer mechanism would depend on the singlet and triplet energies of compounds of Formula I and protoporphyrin IX. To get information on excited state energies of the stabilizer, luminescence experiments were performed. […] However, weak luminescence was observed of the compound of Formula I(a)(1) in a frozen ethanol matrix at 77 K. The luminescence with maximum at 575 nm (FIG. 7c) originates from the compound of Formula I(a)(1), because the luminescence excitation spectrum (FIG. 7b) matches well the absorption spectrum of the compound of Formula I(a)(1) (FIG. 5a). The luminescence lifetime could not be determined, because of the weak signal intensity. […] If the luminescence at 575 nm is the fluorescence, then the Stoke's shift is unusually large. Independent of the assignment of the luminescence to the fluorescence or phosphorescence, this excited state energy is higher than singlet and triplet energies of protoporphyrin IX and rules out a simple energy transfer quenching mechanism. Another possible quenching mechanism is electron transfer quenching which would depend on the redox potentials of the protoporphyrin and the two quencher compounds.

[4] = Voltammetry, redox potential with respect to Ag/AgCl reference electrode; conditions: vs Ag/AgCl; for second redox couple, oxidation peak: the small peak where two are given
From the text: For these experiments, dimethylsulfoxide (DMSO) and tetrabutylammonium perchlorate (TBAP) were obtained from Sigma Aldrich and used as received. […] Platinum wires (BASi MW-1032) of diameter 0.5 mm were employed for both the working electrode (WE) and counter electrode (CE). A dry-solvent tolerant Ag/AgCl reference electrode (RE) was obtained from eDAQ (Model ET072). The WE and CE were cleaned prior to each by first rinsing in acetone, then DI, followed by soaking in ˜50% aqueous H2SO4 for 10-20 minutes and then a final DI rinse. The RE electrode was cleaned prior to each use by an acetone rinse followed by DI rinse. Each sample solution was prepared in a fresh glass vial which had been rinsed with DI then acetone and allowed to dry Immediately after preparing each solution, it was purged with pure N2 gas for 15-20 minutes with the electrodes in place. Voltammetry data was collected shortly afterwards with an EG&G PAR 263 A Potentiostant/Galvanostat operated using a Labview-based control program. Scans were performed at various potential ranges between +2.0V and −2.0V (vs Ag/AgCl); all scan rates were constant at 200 mV/s.

[5] = Protoporphyrin IX triplet state quenching by laser flash photolysis; conditions: for Triplet Quenching Rate Constant: PPIX, acetonitrile solutions at room temperature
Experimental: To investigate if triplet states of protoporphyrin IX are quenched by the two compounds, laser flash photolysis experiments were performed. In these experiments, a deoxygenated acetonitrile solution of protoporphyrin IX is excited with short laser pulses from a Nd-YAG laser (355 nm, 5 ns pulse width). Difference absorption kinetic traces were recorded at different observation wavelengths (300 to 800 nm) and from these a transient absorption spectrum was constructed (FIG. 5A). […] In addition, two bands are observed at 320 and 440 nm, which are assigned to the triplet-triplet absorption of protoporphyrin IX. […] Triplet absorption kinetics at 440 nm may be utilized to obtain triplet quenching rate constants by the stabilizers. Triplet decay traces at 440 nm were recorded in the presence of different amounts of the alkoxy […], Formulas […])(1), and the mixture of II(b)(1) and II(c)(1). The decay traces were fitted to a first-order kinetics. The plot of these pseudo-first-order rate constants (inverse decay lifetime) vs. the concentration of the two compounds gives directly the bimolecular triplet quenching rate constant from the slope (FIG. 6). The biomolecular quenching rate constants for singlet excited state (kq^S) and triplet excited state (kq^T) quenching of PPIX by stabilizers in acetonitrile solutions at room temperature is shown in Table 4, as well and the Stern-Volmer rate constants.

[6] = 0.01 M in 0.1 M TBAP in DMSO, 200 mV/s

fluorescence at room temperature ([3]; ethanol solution) | first (or only) redox couple, oxidation peak [4, 6] [mV] | first (or only) redox couple, reduction peak [4, 6] [mV] | first (or only) redox couple, redox potential ([4]; estimated from the peaks) [mV] | SMILES | Stern-Volmer Constant of ^1O2 Suppression [1] [M⁻¹] | bimolecular quenching rate constant for singlet excited state quenching (in words) ([2]; acetonitrile) | Singlet Quenching Rate Constant [2] | luminescence maximum ([3]; ethanol matrix at 77 K) [nm] | luminescence quantum yield ([3]; ethanol matrix at 77 K) | second redox couple, oxidation peak (large) [4] | second redox couple, reduction peak [4, 6] [mV] | second redox couple, redox potential ([4]; estimated from the peaks) | second redox couple, oxidation peak [4] [mV] | PPIX triplet quenching rate constant by laser flash photolysis [5] [M⁻¹ s⁻¹] | Triplet Quenching Rate Constant [5] | PPIX triplet quenching (in words) ([5]; triplet decay at 440 nm) | rate constant from Stern-Volmer plot, if suppression entirely caused by triplet quenching ([1]; considering triplet lifetime ~1 μs in air saturated DMSO) [M⁻¹ s⁻¹] | quenching rate constant from Stern-Volmer constant, if singlet excited state is quenched ([1]; using fluorescence lifetime 12.7 ns) [M⁻¹ s⁻¹] | rate constant of PPIX singlet quenching using fluorescence quenching ([2]; acetonitrile) [M⁻¹ s⁻¹] | quenching of protoporphyrin IX fluorescence (fluorescence lifetime) ([2]; acetonitrile, alkoxy crylene even at 0.1 M)
– | – | – | – | COC(=O)C(C#N)=C1c2ccccc2C(=O)c2ccccc21 [Formula II(a)(1)] | 240 | high quenching rate constant | 5.2 10^9 M^−1s^−1 | 492 | less than 1% | +430 mV | −1537 | −1501 mV | −1466 | 3.2e+09 | 3.2 10^9 M^−1s^−1 | most efficient quencher | – | – | – | –
did not give detectable fluorescence | −560 | −757 | −658 | COC(=O)C(C#N)=C1c2ccccc2-c2ccccc21 [Formula I(a)(1)] | – | high quenching rate constant | 5.3 10^9 M^−1s^−1 | 575 | – | – | −1297 | approximately −1199 mV | −1102 | 6.1e+06 | 0.0061 10^9 M^−1s^−1 | – | ~3e+07 | 2.4e+09 | 5.3e+09 | significantly quenches
